Laboratory results: the supplement of paper PMC10307832

Key:
Test in all cases: relative viability (nuclei count vs DMSO), 5 days (fraction); higher = more cells survive
[1] = compound: CCN(CCO)CCCC(C)Nc1ccnc2cc(Cl)ccc12 [Hydroxychloroquine] + CC(=O)c1c(C)c2cnc(Nc3ccc(N4CCNCC4)cn3)nc2n(C2CCCC2)c1=O [Palbociclib] (partner 0.5 µM)
Procedure, shortened: (§1)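 Relative viability equals treated-well nuclei counts divided by vehicle-well nuclei counts. Counts came from 4× images of lung cancer cell lines grown in 1536-well plates for 5 days after pin-tool dosing on the day after seeding. Dosing used one drug alone or a fixed anchor-drug dose plus five library-drug doses (not always all listed) in √10 steps, and values are medians of duplicate plates.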

[2] = compound: CCN(CCO)CCCC(C)Nc1ccnc2cc(Cl)ccc12 [Hydroxychloroquine] + CS(=O)(=O)N1CCN(Cc2cc3nc(-c4cccc5[nH]ncc45)nc(N4CCOCC4)c3s2)CC1 [Pictilisib] (partner 1 µM)
Procedure, shortened: as §1

[3] = compound: CCN(CCO)CCCC(C)Nc1ccnc2cc(Cl)ccc12 [Hydroxychloroquine] + N=C(N)NC(=N)NCCc1ccccc1 [Phenformin] (partner 250 µM)
Procedure, shortened: as §1

[4] = compound: CCN(CCO)CCCC(C)Nc1ccnc2cc(Cl)ccc12 [Hydroxychloroquine] + Nc1ncn([C@H]2C[C@H](O)[C@@H](CO)O2)c(=O)n1 [Decitabine] (partner 2 µM)
Procedure, shortened: as §1

## LOU-NH91
[1]; first compound 0.5 µM
  relative viability: 0.534
[1]; first compound 1.581 µM
  relative viability: 0.562
[1]; first compound 5 µM
  relative viability: 0.5
[1]; first compound 15.81 µM
  relative viability: 0.55
[1]; first compound 50 µM
  relative viability: 0.531
[2]; first compound 0.5 µM
  relative viability: 0.531
[2]; first compound 1.581 µM
  relative viability: 0.488
[2]; first compound 5 µM
  relative viability: 0.567
[2]; first compound 15.81 µM
  relative viability: 0.509
[2]; first compound 50 µM
  relative viability: 0.488
[3]; first compound 0.5 µM
  relative viability: 0.704
[3]; first compound 1.581 µM
  relative viability: 0.562
[3]; first compound 5 µM
  relative viability: 0.679
[3]; first compound 15.81 µM
  relative viability: 0.732
[3]; first compound 50 µM
  relative viability: 0.466
[4]; first compound 0.5 µM
  relative viability: 0.761
[4]; first compound 1.581 µM
  relative viability: 0.732
[4]; first compound 5 µM
  relative viability: 0.833
[4]; first compound 15.81 µM
  relative viability: 0.83
[4]; first compound 50 µM
  relative viability: 0.824

## LU99A
[1]; first compound 0.5 µM
  relative viability: 0.356
[1]; first compound 1.581 µM
  relative viability: 0.383
[1]; first compound 5 µM
  relative viability: 0.377
[1]; first compound 15.81 µM
  relative viability: 0.444
[1]; first compound 50 µM
  relative viability: 0.473
[2]; first compound 0.5 µM
  relative viability: 0.367
[2]; first compound 1.581 µM
  relative viability: 0.288
[2]; first compound 5 µM
  relative viability: 0.337
[2]; first compound 15.81 µM
  relative viability: 0.28
[2]; first compound 50 µM
  relative viability: 0.362
[3]; first compound 0.5 µM
  relative viability: 0.765
[3]; first compound 1.581 µM
  relative viability: 0.735
[3]; first compound 5 µM
  relative viability: 0.873
[3]; first compound 15.81 µM
  relative viability: 0.751
[3]; first compound 50 µM
  relative viability: 0.799
[4]; first compound 0.5 µM
  relative viability: 0.864
[4]; first compound 1.581 µM
  relative viability: 0.795
[4]; first compound 5 µM
  relative viability: 0.877
[4]; first compound 15.81 µM
  relative viability: 1.01
[4]; first compound 50 µM
  relative viability: 1.01

## NCI-H1395
[1]; first compound 0.5 µM
  relative viability: 0.652
[1]; first compound 1.581 µM
  relative viability: 0.556
[1]; first compound 5 µM
  relative viability: 0.626
[1]; first compound 15.81 µM
  relative viability: 0.608
[1]; first compound 50 µM
  relative viability: 0.563
[2]; first compound 0.5 µM
  relative viability: 0.605
[2]; first compound 1.581 µM
  relative viability: 0.836
[2]; first compound 5 µM
  relative viability: 0.627
[2]; first compound 15.81 µM
  relative viability: 0.564
[2]; first compound 50 µM
  relative viability: 0.569
[3]; first compound 0.5 µM
  relative viability: 0.465
[3]; first compound 1.581 µM
  relative viability: 0.445
[3]; first compound 5 µM
  relative viability: 0.451
[3]; first compound 15.81 µM
  relative viability: 0.456
[3]; first compound 50 µM
  relative viability: 0.43
[4]; first compound 0.5 µM
  relative viability: 0.665
[4]; first compound 1.581 µM
  relative viability: 0.68
[4]; first compound 5 µM
  relative viability: 0.741
[4]; first compound 15.81 µM
  relative viability: 0.763
[4]; first compound 50 µM
  relative viability: 0.704

## NCI-H520
[1]; first compound 0.5 µM
  relative viability: 0.232
[1]; first compound 1.581 µM
  relative viability: 0.205
[1]; first compound 5 µM
  relative viability: 0.231
[1]; first compound 15.81 µM
  relative viability: 0.199
[1]; first compound 50 µM
  relative viability: 0.239
[2]; first compound 0.5 µM
  relative viability: 0.338
[2]; first compound 1.581 µM
  relative viability: 0.255
[2]; first compound 5 µM
  relative viability: 0.29
[2]; first compound 15.81 µM
  relative viability: 0.354
[2]; first compound 50 µM
  relative viability: 0.387
[3]; first compound 0.5 µM
  relative viability: 0.539
[3]; first compound 1.581 µM
  relative viability: 0.403
[3]; first compound 5 µM
  relative viability: 0.649
[3]; first compound 15.81 µM
  relative viability: 0.683
[3]; first compound 50 µM
  relative viability: 0.628
[4]; first compound 0.5 µM
  relative viability: 0.532
[4]; first compound 1.581 µM
  relative viability: 0.549
[4]; first compound 5 µM
  relative viability: 0.513
[4]; first compound 15.81 µM
  relative viability: 0.491
[4]; first compound 50 µM
  relative viability: 0.526

## 201T
[1]; first compound 0.5 µM
  relative viability: 0.339
[1]; first compound 1.581 µM
  relative viability: 0.351
[1]; first compound 5 µM
  relative viability: 0.378
[1]; first compound 15.81 µM
  relative viability: 0.379
[1]; first compound 50 µM
  relative viability: 0.384
[2]; first compound 0.5 µM
  relative viability: 0.687
[2]; first compound 1.581 µM
  relative viability: 0.555
[2]; first compound 5 µM
  relative viability: 0.641
[2]; first compound 15.81 µM
  relative viability: 0.631
[2]; first compound 50 µM
  relative viability: 0.698
[3]; first compound 0.5 µM
  relative viability: 0.441
[3]; first compound 1.581 µM
  relative viability: 0.428
[3]; first compound 5 µM
  relative viability: 0.449
[3]; first compound 15.81 µM
  relative viability: 0.419
[3]; first compound 50 µM
  relative viability: 0.526
[4]; first compound 0.5 µM
  relative viability: 0.858
[4]; first compound 1.581 µM
  relative viability: 0.834
[4]; first compound 5 µM
  relative viability: 0.852
[4]; first compound 15.81 µM
  relative viability: 0.864
[4]; first compound 50 µM
  relative viability: 0.844

## NCI-H1944
[1]; first compound 0.5 µM
  relative viability: 0.301
[1]; first compound 1.581 µM
  relative viability: 0.314
[1]; first compound 5 µM
  relative viability: 0.319
[1]; first compound 15.81 µM
  relative viability: 0.29
[1]; first compound 50 µM
  relative viability: 0.346
[2]; first compound 0.5 µM
  relative viability: 0.309
[2]; first compound 1.581 µM
  relative viability: 0.293
[2]; first compound 5 µM
  relative viability: 0.326
[2]; first compound 15.81 µM
  relative viability: 0.325
[2]; first compound 50 µM
  relative viability: 0.382
[3]; first compound 0.5 µM
  relative viability: 0.196
[3]; first compound 1.581 µM
  relative viability: 0.17
[3]; first compound 5 µM
  relative viability: 0.193
[3]; first compound 15.81 µM
  relative viability: 0.195
[3]; first compound 50 µM
  relative viability: 0.204
[4]; first compound 0.5 µM
  relative viability: 0.4
[4]; first compound 1.581 µM
  relative viability: 0.44
[4]; first compound 5 µM
  relative viability: 0.423
[4]; first compound 15.81 µM
  relative viability: 0.483
[4]; first compound 50 µM
  relative viability: 0.429

## NCI-H2405
[1]; first compound 0.5 µM
  relative viability: 0.557
[1]; first compound 1.581 µM
  relative viability: 0.471
[1]; first compound 5 µM
  relative viability: 0.576
[1]; first compound 15.81 µM
  relative viability: 0.516
[1]; first compound 50 µM
  relative viability: 0.516
[2]; first compound 0.5 µM
  relative viability: 0.471
[2]; first compound 1.581 µM
  relative viability: 0.346
[2]; first compound 5 µM
  relative viability: 0.416
[2]; first compound 15.81 µM
  relative viability: 0.466
[2]; first compound 50 µM
  relative viability: 0.541
[3]; first compound 0.5 µM
  relative viability: 0.417
[3]; first compound 1.581 µM
  relative viability: 0.352
[3]; first compound 5 µM
  relative viability: 0.368
[3]; first compound 15.81 µM
  relative viability: 0.384
[3]; first compound 50 µM
  relative viability: 0.398
[4]; first compound 0.5 µM
  relative viability: 0.718
[4]; first compound 1.581 µM
  relative viability: 0.743
[4]; first compound 5 µM
  relative viability: 0.774
[4]; first compound 15.81 µM
  relative viability: 0.69
[4]; first compound 50 µM
  relative viability: 0.761

## NCI-H1703
[2]; first compound 0.5 µM
  relative viability: 0.272
[2]; first compound 1.581 µM
  relative viability: 0.241
[2]; first compound 5 µM
  relative viability: 0.224
[2]; first compound 15.81 µM
  relative viability: 0.263
[2]; first compound 50 µM
  relative viability: 0.216

## NCI-H1755
[1]; first compound 0.5 µM
  relative viability: 0.459
[1]; first compound 1.581 µM
  relative viability: 0.398
[1]; first compound 5 µM
  relative viability: 0.445
[1]; first compound 15.81 µM
  relative viability: 0.443
[1]; first compound 50 µM
  relative viability: 0.475
[2]; first compound 0.5 µM
  relative viability: 0.431
[2]; first compound 1.581 µM
  relative viability: 0.273
[2]; first compound 5 µM
  relative viability: 0.374
[2]; first compound 15.81 µM
  relative viability: 0.425
[2]; first compound 50 µM
  relative viability: 0.379
[3]; first compound 0.5 µM
  relative viability: 0.628
[3]; first compound 1.581 µM
  relative viability: 0.529
[3]; first compound 5 µM
  relative viability: 0.63
[3]; first compound 15.81 µM
  relative viability: 0.636
[3]; first compound 50 µM
  relative viability: 0.572
[4]; first compound 0.5 µM
  relative viability: 0.707
[4]; first compound 1.581 µM
  relative viability: 0.644
[4]; first compound 5 µM
  relative viability: 0.727
[4]; first compound 15.81 µM
  relative viability: 0.694
[4]; first compound 50 µM
  relative viability: 0.656
